According to PubChem BioAssay (NCI):
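Step 1: Grow cells in 96-well plates. Step 2: Expose to compound for 48 hours at 5 concentrations. Step 3: Interpolate endpoints linearly; if unreached, use highest concentration. The concentration for full growth arrest is given as TGI.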

Columns and labels:
Assay in all cases: NCI anticancer screen, dose series, 48 h
KM12 colon = system: KM12 colon
OVCAR-3 ovarian = system: OVCAR-3 ovarian
SN12C renal = system: SN12C renal
NCI-H460 lung = system: NCI-H460 lung
HOP-92 NSCLC = system: HOP-92 NSCLC
U251 CNS = system: U251 CNS
UACC-257 melanoma = system: UACC-257 melanoma
A549 NSCLC = system: A549 NSCLC
HT29 colon = system: HT29 colon
MDA-N = system: MDA-N

Row | Compound | TGI (KM12 colon) [µM] | TGI (OVCAR-3 ovarian) [µM] | TGI (SN12C renal) [µM] | TGI (NCI-H460 lung) [µM] | TGI (HOP-92 NSCLC) [µM] | TGI (U251 CNS) [µM] | TGI (UACC-257 melanoma) [µM] | TGI (A549 NSCLC) [µM] | TGI (HT29 colon) [µM] | TGI (MDA-N) [µM]
1 | CCOC(=O)NC(Nc1cccc(C(F)(F)F)c1)(C(F)(F)F)C(F)(F)F | > 100 | > 100 | > 100 | > 100 | > 100 | > 100 | > 100 | > 100 | > 100 | > 100
2 | O=c1oc2ccc([N+](=O)[O-])cc2c(Nc2ccc3c(c2)Oc2ccccc2O3)c1[N+](=O)[O-] | > 100 | > 100 | > 100 | > 100 | 54.1 | 38.7 | 76.6 | > 100 | > 100 | > 100
3 | CC(=O)[C@@]1(O)CC[C@H]2[C@@H]3C[C@H](C)C4=CC(=O)C=C[C@]4(C)[C@@]3(F)[C@@H](O)C[C@@]21C | > 100 | > 100 | > 100 | > 100 | > 100 | > 100 | > 100 | > 100 | > 100 | > 100
4 | CCNC(=O)Nc1cccc(NC(=O)NCC)n1 | > 100 | > 100 | > 100 | > 100 | > 100 | > 100 | > 100 | > 100 | > 100 | > 100
5 | CCC1(C)C=Cc2c(cc(O)c3c(=O)c4ccccc4n(C)c23)O1 (stereo not given) | > 10 | > 10 | > 10 | > 10 | > 10 | > 10 | > 10 | > 10 | > 10 | > 10
6 | CC(=O)OCC1OC(n2c3c(cc(C#N)c2=S)CCCCC3)C(OC(C)=O)C(OC(C)=O)C1OC(C)=O (stereo not given) | > 100 | > 100 | > 100 | > 100 | > 100 | > 100 | > 100 | > 100 | > 100 | > 100
7 | CC(C)(C)OC(=O)NCCCNC1(c2cc3ccccc3s2)CCCCC1 | 33.1 | 27.5 | 30.5 | 30.5 | 22.6 | 74.8 | 30.8 | 27.2 | 13.4 | 28.8
8 | COc1ccc(NS(=O)(=O)c2ccc(NC(NC(=O)CC(C)C)(C(F)(F)F)C(F)(F)F)cc2)nn1 | > 100 | > 100 | > 100 | > 100 | > 100 | > 100 | > 100 | > 100 | > 100 | > 100
9 | C=CCOc1ccc(C2C(C(=O)OCC)C(=O)CC(C)(O)C2C(=O)OCC)cc1OC (stereo not given) | > 100 | > 100 | > 100 | > 100 | > 100 | > 100 | > 100 | > 100 | > 100 | > 100
10 | CC(=O)O[C@H]1CC[C@@]2(C)C(=CC[C@H]3[C@@H]4C[C@H](N5CCOCC5)[C@H](OC(C)=O)[C@@]4(C)CC[C@@H]32)C1 | > 100 | > 100 | > 100 | > 100 | > 100 | > 100 | > 100 | > 100 | > 100 | > 100
11 | CC12CCC(O)CC1CCC1C2CCC2(C)C(C(=O)CC(O)C(F)(F)F)CCC12 (stereo not given) | > 100 | > 90.9 | > 100 | > 100 | > 85.2 | > 100 | > 91.6 | > 100 | 19.6 | > 100
12 | [N-]=[N+]=NC1=C(c2ccccn2)C(=O)c2cccc3cccc1c23 | > 100 | > 100 | > 100 | > 100 | > 100 | > 100 | 98.4 | > 100 | > 100 | > 100
13 | O=C1c2cccnc2-c2nccc3c2c1nc1cc(Br)ccc13 | 0.338 | 0.2 | 0.412 | 0.304 | 2.02 | 0.288 | 0.837 | 0.309 | 2.45 | 0.732
14 | COc1ccc2c(cnc3c4cc(OC)c(OC)cc4ccc23)c1 | > 100 | > 100 | > 100 | > 100 | > 100 | > 100 | > 100 | > 100 | > 100 | > 100
15 | CCOc1ccc(/C=C2/C(=O)N=C(NC(C)=O)N2C)cc1 | > 100 | > 100 | > 100 | > 100 | > 100 | > 100 | > 100 | > 100 | > 100 | > 100
16 | Cc1nc2sc3ccccc3n2c(=O)c1N=Nc1ccc(Cl)cc1 | > 100 | > 100 | > 100 | > 100 | > 100 | > 100 | > 100 | > 100 | > 100 | > 100
17 | CCOC(=O)C1C2CCC1CC(=NNc1ccc([N+](=O)[O-])cc1[N+](=O)[O-])C2 (stereo not given) | > 50 | > 50 | > 50 | > 50 | 48.7 | > 50 | > 50 | > 50 | > 50 | > 50
